In patent US7264956B2, “Compounds and methods for inhibiting axillary malodour” (Givaudan SA, priority 2001, dated 2007):
“Also recorded” adds a separate entry of the source. Where two headings read alike, the source gives them in different places.

Experiments:
[1] = molecular target: T1, enzyme extracted from Corynebacterium striatum A×20 (AMRE, Nα-acyl-glutamine-aminoacylase) (Corynebacterium striatum, UniProt Q8GGD4); assay: Substrate specificity of the enzyme (capillary GC of released acid or alcohol); assay type: biochemical; details: for Cleavage by enzyme: 500 ppm in Buffer A, 24 h incubation
T1 construct: an enzyme may be isolated from cellular extracts obtained from wild-type bacterial strains; endogenous in cells; host or cells: Corynebacterium striatum Ax20 (DSM 14267), mechanically disrupted; crude extract or chromatographically purified enzyme
T1 sequence (Q8GGD4 2-400): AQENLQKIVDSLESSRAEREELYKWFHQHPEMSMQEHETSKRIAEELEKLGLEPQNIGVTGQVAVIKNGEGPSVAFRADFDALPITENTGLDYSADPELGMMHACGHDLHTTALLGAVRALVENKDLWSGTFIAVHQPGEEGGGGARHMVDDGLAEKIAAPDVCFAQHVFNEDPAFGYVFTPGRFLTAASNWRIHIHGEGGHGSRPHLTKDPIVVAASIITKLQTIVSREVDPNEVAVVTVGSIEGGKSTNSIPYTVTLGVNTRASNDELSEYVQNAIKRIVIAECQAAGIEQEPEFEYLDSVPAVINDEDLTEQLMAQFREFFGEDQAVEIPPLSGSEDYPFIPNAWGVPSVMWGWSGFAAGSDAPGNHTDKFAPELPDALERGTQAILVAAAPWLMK
Method: To understand in detail the structural requirements of substrates, the enzyme extracted from Corynebacterium striatum A×20 was incubated with a wide variety of said compounds related to the originally isolated Nα-3-methyl-3-hydroxy-hexanoyl-L-glutamine present in sweat. Each compound was used at a concentration of 500 ppm in Buffer A, and analysis of released acid or alcohol was done by capillary GC after 24 h of incubation. First, different modifications at the N-terminus were tested.

[2] = system: other Corynebacteria and some Staphylococci; assay: Release of lauric acid from Nα-lauroyl-L-glutamine by axilla bacteria; assay type: cell-based; details: same experiment as Table 1, Nα-lauroyl-L-glutamine as substrate
Method: The axillary flora of 8 panellists was isolated with the detergent-scrub method: A 6 cm^2 area of the axilla was scrubbed with a phosphate buffer at pH 7 containing 1% Tween 80. The samples were spread-plated on tryptic soy agar amended with 5 g/L of Tween 80 and 1 g/L of lecithin. Single isolates obtained after 48 h incubation were subcultured and characterised. A total of 24 individual strains were identified based on colony and cell morphology, gram-reaction, lipophilic growth, lipase reaction and API identification kits (bioMerieux, France; coryneforms with the API coryne kit and cocci with the ID Staph 32 kit). The strains were grown overnight in a liquid medium (Mueller-Hinton amended with 0.01% Tween 80), harvested by centrifugation and resuspended to a final OD600 of 1 in a semi-synthetic medium (Per litre: 3 g KH2PO4, 1.9 g K2HPO4, 0.2 g yeast extract, 0.2 g MgSO4, 1.4 g NaCl, 1 g NH4Cl, 10 mg MnCl2, 1 mg Fe3Cl2, 1 mg CaCl2). […] The Corynebacteria which are able to conduct this biochemical reaction may be found in the group of the lipophilic and in the group of the non-lipophilic Corynebacteria. Therefore, a specific enzyme only present in some bacterial strains seems to be responsible for this cleavage. Since it releases axilla malodour the putative enzyme was named AMRE, which stands for ‘axillary malodour releasing enzyme’. […]

[3] = molecular target: T2, purified enzyme from Corynebacterium striatum A×20 (Corynebacterium striatum, UniProt Q8GGD4); assay type: biochemical; details: for enzyme activity after incubation with serin-/cystein protease inhibitor: purified enzyme
T2 construct: an enzyme may be isolated from cellular extracts obtained from wild-type bacterial strains; endogenous in cells; host or cells: Corynebacterium striatum Ax20 (DSM 14267), mechanically disrupted; crude extract or chromatographically purified enzyme
T2 sequence (Q8GGD4 2-400): as above
Method: Corynebacterium striatum A×20 was selected to isolate and purify the enzyme responsible for the cleavage of the precursor Nα-3-hydroxy-3-methyl-hexanoyl-L-glutamine. The strain was grown during 48 h in Mueller-Hinton broth amended with 0.01% Tween 80. A total volume of 2 L of culture was harvested by centrifugation. The pellet was washed in Buffer A (50 mM NaCl; 50 mM NaH2PO4/K2HPO4 buffer at pH 7) and this buffer was used throughout the whole purification procedure. The cells were disrupted mechanically by vortexing them with glass beads (425–600 μm, Sigma, St-Louis, USA) during 30 min at maximal speed. The crude cell lysate was then fractionated by precipitation with an increasing concentration of (NH4)2SO4. […] This enriched sample was dissolved in Buffer A and then sequentially passed over four chromatography columns: DEAE Sepharose CL-6B anion exchange resin (Pharmacia, Uppsala, Sweden; elution with a linear gradient from 0 to 800 mM KCI); Phenyl-Sepharose hydrophobic interaction resin (Pharmacia; elution with a linear gradient from 1000 mM to 0 mM of (NH4)2SO4; Mono Q strong anion exchange column on the FPLC system (Pharmacia; elution with a gradient from 0 to 800 mM KCl) and finally Mono P weak anion exchange column on the FPLC (elution with a gradient from 0–800 mM KCl in a 50 mM Bis-Tris buffer instead of Buffer A). […] Finally, the enzyme was subjected to LC-ESI-MS/MS analysis after tryptic digestion and to analysis of its N-terminal amino acid sequence.

[4] = molecular target: T3, purified enzyme obtained from E.coli Top 10/pBADgIII AMRE (Corynebacterium striatum, UniProt Q8GGD4); assay: High throughput screening for inhibitors (fluorescamine assay of released L-glutamine); assay type: biochemical; details: substrate Nα-lauroyl-L-glutamine 0.05 mM; Ki calculated from IC50
T3 construct: made in house; host or cells: E. coli TOP10 (Invitrogen), vector pBADgIIIA, arabinose-induced
T3 sequence (Q8GGD4 2-400): as above
Text: Compounds, which inhibit an enzyme of the present invention reduce the activity of the enzyme and may lead to a significant reduction of the release of malodour acids from odourless fresh sweat. […] The activity of the compounds as inhibitors may be measured in terms of either their IC50 values or their Ki values, both of which measures are well known to the person skilled in the art. As is well known, the IC50 value provides the concentration of an inhibitor needed to reduce enzyme velocity by half at a given substrate concentration. This value is dependent on the affinity of the substrate for the enzyme which is reflected in the value Km of the substrate. In this way, the Ki value may be determined for a given substrate and a given substrate concentration by measuring IC50 and then calculating according to the following formula
Potential inhibitory compounds were dissolved in Buffer A and aliquots of the solutions of different inhibitors (10 μl) were distributed to individual wells of a white microtiter plate. Purified enzyme obtained from the strain E.coli Top 10/pBADgIII AMRE was diluted in Buffer A (200 pg/ml final concentration) and added to the inhibitory compounds. After 10 min preincubation, the substrate (Nα-lauroyl-L-glutamine) was added to the individual wells to a final concentration of 0.05 mM. After 15 min of incubation, the amino-group of the released L-glutamine was derivatised by adding to each well of the microtiter plate 50 μl of a fluorescamine stock solution (2.5 mM in acetonitrile; fluorescamine obtained from Fluka, Buchs, Switzerland). After 5 min the fluorescence in the wells of the microtiter plates was measured with an excitation wavelength of 360 nm and an emission wavelength of 460 nm. The fluorescence of control wells with enzyme, substrate and DMSO only was then compared to the fluorescence in wells containing potential inhibitors. By varying the inhibitor concentration, the IC50 value for each compound was determined, and the Ki values were calculated.

[5] = molecular target: T4, isolated enzyme (extracts of A×20) (Corynebacterium striatum, UniProt Q8GGD4); assay: Low throughput screening for inhibitors, isolated enzyme (released lauric acid by GC); assay type: biochemical; details: substrate Nα-lauroyl-L-glutamine, 2 h
T4 construct: an enzyme may be isolated from cellular extracts obtained from wild-type bacterial strains; endogenous in cells; host or cells: Corynebacterium striatum Ax20 (DSM 14267), mechanically disrupted; crude extract or chromatographically purified enzyme
T4 sequence (Q8GGD4 2-400): as above
Method: (§1) Extracts of A×20 were prepared by mechanical disruption as described in Example 3. The extract (0.5 ml corresponding to 2 ml initial cell culture) was added to 3.5 ml of Buffer A and amended with 40 μl of substrate (Nα-lauroyl-L-glutamine, 5% stock solution in methanol). Parallel samples were additionally amended with potential inhibitory compounds to give a final concentration of 0.5 and 5 mM. The samples were incubated for 2 h and then extracted with MTBE and HCI and analysed for released lauric acid using capillary GC. By comparing the samples containing potential inhibitory compounds with control samples with enzyme and substrate only, the inhibition (%) was calculated. The same assay was also made either with purified enzyme from the wild-type strain (see example 3) or with extracts from E.coli Top 10/pBADgIII AMRE induced with arabinose (see example 6). Furthermore, the same assay was made using stationary phase living cells of A×20 instead of an isolated enzyme preparation. In this case successful uptake of the inhibitors into the cells and inhibition are measured simultaneously.

[6] = molecular target: T5, enzyme activity in living cells of A×20 (Corynebacterium striatum, UniProt Q8GGD4); assay: Low throughput screening for inhibitors, stationary phase living cells of A×20; assay type: cell-based; details: 5 mM; substrate Nα-lauroyl-L-glutamine, 2 h
T5 construct: stationary phase living cells of A×20; endogenous in cells; host or cells: Corynebacterium striatum Ax20, stationary-phase living cells
T5 sequence (Q8GGD4 2-400): as above
Method: as §1

[7] = molecular target: T6, enzyme heterologously expressed in E. coli TOP10 (pBADgIIIAMRE) (Corynebacterium striatum, UniProt Q8GGD4); assay: Enzyme assay with extracts of E. coli expressing the enzyme (release of lauric acid); assay type: biochemical; details: 500 ppm substrate
T6 construct: made in house; host or cells: E. coli TOP10 (Invitrogen), vector pBADgIIIA, arabinose-induced
T6 sequence (Q8GGD4 2-400): as above
Text: The full-length sequence of the open reading frame coding for the enzyme was amplified with PCR from chromosomal DNA of A×20 using specific primers (SEQ ID NO 14 and SEQ ID NO 15). The amplified DNA fragment was then digested with the restriction enzymes NcoI and Hind III It was then ligated into the vector pBADIIIA (Invitrogen, Groningen, The Netherlands) pre-digested with the same enzymes. The resulting plasmid pBADgIIIAMRE was transformed into the host strain E. coli TOP10 (Invitrogen). This strain was grown in LB broth until it reached an optical density of about 0.5 at 600 nm. The culture was induced with arabinose (0.2% final concentration) incubated for 4 h, harvested by centrifugation and disrupted by ultrasonication. Enzyme assays with Na-lauryl-Glutamine as substrate were performed in Buffer A with an incubation time of 1 h and a substrate concentration of 500 ppm. Table 3 gives the activity of extracts obtained from wild-type cells and from extracts of the induced and non-induced modified strains expressing the enzyme.

CCCCCCCCCCCC(=O)N[C@@H](CCC(N)=O)C(=O)O [Nα-lauroyl-L-glutamine]
cleavage of substrate by enzyme (in words) [1]: able to be cleaved; also recorded: can cleave | release of lauric acid from substrate by axilla bacteria [2]: can release lauric acid

NCCc1ccc(S(=O)(=O)F)cc1 [Pefabloc SC, 4-(2-aminoethyl)-benzenesulfonylfluoride]
enzyme activity after incubation with serin-/cystein protease inhibitor [3]: retained all its activity

NC(=O)CCC(CP(=O)(O)Cc1ccccc1)C(=O)O (stereo not shown) [Compound 8a]
Ki [4]: 50 ± 3 nM

O=S(=O)(F)Cc1ccccc1 [PMSF, Phenylmethylsulfonylfluoride]
enzyme activity after incubation with serin-/cystein protease inhibitor [3]: retained all its activity

c1cnc2c(c1)ccc1cccnc12 [o-phenantrolin]
% inhibition of the isolated enzyme ([5]; 0.5 mM): 100% | % inhibition of the isolated enzyme ([5]; 5 mM): 100% | % inhibition of enzyme activity in living cells [6]: 90.3% | inhibition of the enzyme ([3]; 1 mM): completely inhibited

O=C(O)CN(CCN(CC(=O)O)CC(=O)O)CC(=O)O [EDTA]
inhibition of the enzyme [3]: completely inhibited

CCCCP(=O)(O)CC(CCC(N)=O)C(=O)O (stereo not shown) [Compound 8c]
Ki [4]: 110 ± 10 nM

NC(=O)CC[C@H](NC(=O)[C@@H](S)Cc1ccccc1)C(=O)O [Compound 5a]
Ki [4]: 54 ± 1 nM

CC(C)CP(=O)(O)CC(CCC(N)=O)C(=O)O (stereo not shown) [Compound 8b]
Ki [4]: 58 ± 4 nM

[Cl-].[Cl-].[Zn+2] [ZnCl2]
reversal of EDTA / o-phenantrolin inhibition ([3]; addition of 1 mM): could be reversed

CCCCCCCCCCCC(=O)N[C@@H](CCC(N)=O)C(=O)O [compound 2, Nα-lauroyl-L-glutamine]
Cleavage by enzyme [1]: +++ (+++ cleavage over 50%) | release of lauric acid from Lauryl-Glutamine, 1 h incubation ([7]; extract of E. coli Top 10 (wild-type), 4 h after induction): below detection | release of lauric acid from Lauryl-Glutamine, 1 h incubation ([7]; extract of E. coli Top 10/pBADgIIIAMRE not induced): 23 ppm | release of lauric acid from Lauryl-Glutamine, 1 h incubation ([7]; extract of E. coli Top 10 induced, 4 h after induction): 329 ppm

CC(C)C[C@H](S)C(=O)N[C@@H](CCC(N)=O)C(=O)O [Compound 5b]
Ki [4]: 130 ± 10 nM

CCCC[C@H](S)C(=O)N[C@@H](CCC(N)=O)C(=O)O [Compound 5c]
Ki [4]: 410 ± 20 nM

NC(=O)C[C@H](NC(=O)OCc1ccccc1)C(=O)O [compound 12, Carbobenzyloxy-L-asparagine]
Cleavage by enzyme [1]: − | melting point: 102 to 104 °C
